Source: US20260091068A1, “METHODS FOR TREATING AND PREVENTING DISEASES” (priority 2017, published 2026)

Key:
[1] = test system: bacteriophages from swabs of hands, masks and work surfaces; test: Bacterial DNA in blood (16S RT-PCR) after water with phages from treated objects and surfaces (Example 5); format: in vivo; settings: average of 3 experiments
Protocol: Fourteen days after including any product enriched with bacteriophage mixture into the mice diet, the mice blood was aseptically taken and bacterial DNA content in the bloodstream was evaluated. Increased DNA content in blood indicates an increase of intestinal permeability reflecting increased translocation of microorganisms from the gastro-intestinal tract into the systemic circulation. (See Deitch E. A., et al. Effect of hemorrhagic shock on bacterial translocation, intestinal morphology, and intestinal permeability in conventional and antibiotic-decontaminated rats. Critical care medicine 18.5 (1990), 529-536). DNA was isolated with a kit for the isolation of nucleic acids DNAQamp Qiagen. Quantitative determination of DNA was carried out by RT-PCR using universal bacterial primers for 16S rRNA (upb2 with a universal FAM-probe for bacteria: (5FAM) aat acg ttc ccg ggt ctt gta cac acc gcc cgt cac act att (3′RTQ1) (SEQ ID NO: 6) and DG74 5′aac tgg agg aag gtg ggg at 3′ (SEQ ID NO: 7)) on Bio-Rad CFX96 amplifier. Reaction conditions: 95° C.—5 min. 45 cycles 95° C.—15 sec, 60° C.—30 sec, fluorescence reading.
Bacteriophages were obtained from the swabs from hands and masks of medical staff and work surfaces in surgical clinics. The hands, masks and surfaces were subjected to various kinds of treatments in order to reduce the amount of phages on them. After the treatment, phages were isolated by the Gratia's method (Kropinski et al. “Enumeration of bacteriophages by double agar overlay plaque assay.” Bacteriophages: Methods and Protocols, Volume 1: Isolation, Characterization, and Interactions, Humana Press, 2009, vol. 501, 69-76). Test material (swabs) was filtered through 0.45 μm Millipore membrane filters. The resulting filtrate was incubated at 60° C. for 60 minutes to inactivate bacteria and was added to 100 μL of water. The resulting solutions were given to animals with water, and the development of an increased intestinal permeability was evaluated as described in Example 4, above. The animals were divided into the following treatment groups:
Group “PHG”: water with the addition of bacteriophages obtained from objects and surfaces treated with a 0.1% (1000 mg/L) polyhexamethylene guanidine derivative preparation. The polyhexamethylene guanidine preparation used in this treatment was prepared by condensation polymerization of hexamethylenediamine with guanidine salt and hydrazine hydrate, as described in U.S. Provisional Pat. Appl. No. 62/510,446, U.S. Pat. No. 8,993,712, U.S. Pat. Appl. Pub. No. 2017/0013838 and Int. Pat. Appl. Pub. No. WO2016/118043.
Group “Photocatalyst”: water with the addition of bacteriophages obtained from objects and surfaces treated with TiO2 and activated by ultraviolet radiation. […]

[2] = test system: bacteriophages isolated from waste water; test: Bacterial DNA in blood (16S RT-PCR) after diet with phage-enriched, treated products (Example 4); format: in vivo, Wistar rats; settings: blood after 14 days, average of 3 experiments
Protocol: As a source for the isolation of bacteriophages, waste water from canalization was used. The phages were isolated by Gratia's method (Kropinski et al. “Enumeration of bacteriophages by double agar overlay plaque assay.” Bacteriophages: Methods and Protocols, Volume 1: Isolation, Characterization, and Interactions, Humana Press, 2009, vol. 501, 69-76). Test material (waste water) was filtered through 0.45 μm Millipore membrane filters. The resulting filtrate was incubated at 60° C. for 60 minutes to inactivate bacteria and was added to water or products (e.g., milk, yogurt, curd, cheese, minced meat, minced chicken, fish, fruit mix, vegetable mixture) in 100 μL volume. The resulting food products enriched with phages were included in the mice diet. […]
Fourteen days after including any product enriched with bacteriophage mixture into the mice diet, the mice blood was aseptically taken and bacterial DNA content in the bloodstream was evaluated. […] Quantitative determination of DNA was carried out by RT-PCR using universal bacterial primers for 16S rRNA (upb2 with a universal FAM-probe for bacteria: (5FAM) aat acg ttc ccg ggt ctt gta cac acc gcc cgt cac act att (3′RTQ1) (SEQ ID NO: 6) and DG74 5′aac tgg agg aag gtg ggg at 3′ (SEQ ID NO: 7)) on Bio-Rad CFX96 amplifier. […] 45 cycles 95° C.—15 sec, 60° C.—30 sec, fluorescence reading.

hairless mice = test: General skin elasticity after 36 weeks of water application (Example 7); format: in vivo; settings: vs untreated left part of the back
Protocol: In the experiment, hairless mice, 5 males and 5 females, (C57BL/6 albino/hairless, The Jackson Laboratories) of both sexes were used. Starting from 4 weeks of age, animals were daily treated with tap water or mineral water from artesian source, the water applied on the right half of the back. After 36 weeks, skin condition parameters were evaluated (SoftPlusCPU (Callegaris.p.a.)) in the application area, compared with the untreated left part of the back. Animals were divided into the following treatment groups:
Group “Filtration”: water filtered through 0.22 μm Millipore membrane filters.
Group “Electron”: water treated with an electron flow.
Group “Prototype”: water treated with potassium nitrate.

[3] = test system: bacteriophages isolated from the feces of obese mice; test: Body weight after 21 weeks of drinking water with phages from obese mice (Example 6); format: in vivo; settings: treated drinking water with phages from obese mice; standard diet
Protocol: To assess a possibility of preventing changes in the GI microbiota leading to obesity by limiting bacteriophage entry from the environment, bacteriophages were isolated from the feces of Group #1 mice in which obesity was modeled. The obtained phages were added to drinking water of mice (age 12 weeks) from Group #2 for 21 weeks. The diet of the animals remained standard, i.e., not a high fat diet. The mice in Group #2 were divided into the following treatment groups:
Group “Filtration”: water with the addition of bacteriophages, filtered through 0.45 μm Millipore membrane filters.
Group “Pascalization”: water with the addition of bacteriophages, treated with high pressure (340 MPa).
Group “Prototype”: water with the addition of bacteriophages, treated with potassium nitrate.

Structure (SMILES) | Number of cycles during which bacterial DNA appears (Cq) [1] [cycles] | Number of cycles during which bacterial DNA appears (Cq) ([2]; phages added to cheese) [cycles] | Number of cycles during which bacterial DNA appears (Cq) ([2]; phages added to water) [cycles] | Change in parameter of general skin elasticity (hairless mice; Tap water) [%] | Change in parameter of general skin elasticity (hairless mice; Well water) [%] | Animal body weight after 21 weeks [3] [g]
[Cu+2] [Metals, Cu^2+] | 29.51 |  |  |  |  | 
OO [Peroxide, H2O2] | 31.65 |  |  |  |  | 
O=[O+][O-] [Ozone, ozone] | 27.74 |  |  |  |  | 
O=[N+]([O-])[O-].[K+] [Prototype, potassium nitrate] | 17.92 | 19.79 | 17.28 | −42.9 | −41.4 | 46
